According to patent US20250345392A1, “ANNEXIN A1 LIQUID PHARMACEUTICAL COMPOSITION” (ResoTher Pharma A/S, priority 2022, published 2025):
Ends that are not written are not given here.

Experiments:
[1] = PK after single intravenous injection of Peptide 1 in male rats; design: species or system male Wistar (CRL: WI(Han)) rats; details: rat, in vivo; for clearance / half-life / Vd: iv
Description: (§1) Peptide 1 in blood samples collected from animals used in the studies (rat and dog) has been measured by an LC-MS/MS method. Analysis of samples collected in the pharmacokinetic study in rats was performed prior to validation of the method. Prior to analysis of samples from the GLP toxicology studies, the method was validated according to GLP to ensure that it is selective, accurate, reproducible, and able to produce reliable results. The method was validated over the range from 0.075 to 25 μg/mL Peptide 1.
The objective of the study was to assess the pharmacokinetic profile of Peptide 1 when administered once by intravenous injection to male Wistar (CRL: WI(Han)) rats at 0.1, 1.0 and 10.0 mg/kg. The number of rats per group was respectively 6, 6 and 8. Blood samples were collected from 3 animals per group at 2, 5, 10, 20, 40 and 60 minutes after dosing; for the animals receiving 10.0 mg/kg, additional samples were taken from 2 animals at 90 and 120 minutes after dosing. The pharmacokinetics were characterised using mean plasma concentration vs. time data. The pharmacokinetic parameters were estimated using Phoenix WinNonlin Version 6.3 pharmacokinetic software.
[…] 26 plasma samples (samples in Group 1 (0.1 mg/kg) obtained 2 minutes post dosing, in Group 2 (1 mg/kg) 2 to 10 minutes post dosing and in Group 3 (10 mg/kg) 2 to 40 minutes post dosing) had concentrations of Peptide 1 above the upper limit of quantification for the bioanalytical method. As a consequence, plasma concentration of Peptide 1 was extrapolated. Plasma samples obtained 60 minutes post dosing in Group 1 had plasma concentration of Peptide 1 below the limit of quantification.

[2] = 14-day repeat dose IV toxicity study with toxicokinetic evaluation on Day 1 and Day 14 in rats; assay type: in vivo, Wistar rats; details: rat; for C0 / AUC(0-inf) / half-life / clearance / Vd: in vivo
Description: as §1
In the 14-day intravenous toxicity study in Wistar rats (see study description below), samples were collected from 3 male and 3 female animals per group dosed at 0 (Control), 1, 3 or 10 mg/kg/day at 2, 5, 10, 20 and 40 minutes after dosing on Days 1 and 14. Samples were analysed for levels of Peptide 1.

[3] = single IV 0.1 mg/kg, initial elimination phase
[4] = single IV 1.0 mg/kg, initial elimination phase
[5] = single IV 10 mg/kg, initial elimination phase
[6] = iv, 1 mg/kg/day, IV 1.0 mg/kg/day, female, Day 1
[7] = iv, 1 mg/kg/day, IV 1.0 mg/kg/day, female, Day 14

clearance ([1]; 0.1 mg/kg, single IV 0.1 mg/kg, initial elimination phase, read-out: CL): 10 mL/min/kg
half-life ([1]; 0.1 mg/kg, single IV 0.1 mg/kg, initial elimination phase, read-out: T½): 3.49 min
Vd ([1]; 0.1 mg/kg, single IV 0.1 mg/kg, initial elimination phase, read-out: Vz): 0.0505 L/kg
clearance ([1]; 0.1 mg/kg, single IV 0.1 mg/kg, terminal elimination phase, read-out: CL): 9.66 mL/min/kg
half-life ([1]; 0.1 mg/kg, single IV 0.1 mg/kg, terminal elimination phase, read-out: T½): 18.8 min
Vd ([1]; 0.1 mg/kg, single IV 0.1 mg/kg, terminal elimination phase, read-out: Vz): 0.261 L/kg
clearance ([1]; 1 mg/kg, single IV 1.0 mg/kg, initial elimination phase, read-out: CL): 8.08 mL/min/kg
half-life ([1]; 1 mg/kg, single IV 1.0 mg/kg, initial elimination phase, read-out: T½): 3.34 min
Vd ([1]; 1 mg/kg, single IV 1.0 mg/kg, initial elimination phase, read-out: Vz): 0.0389 L/kg
clearance ([1]; 1 mg/kg, single IV 1.0 mg/kg, terminal elimination phase, read-out: CL): 8.05 mL/min/kg
half-life ([1]; 1 mg/kg, single IV 1.0 mg/kg, terminal elimination phase, read-out: T½): 10 min
Vd ([1]; 1 mg/kg, single IV 1.0 mg/kg, terminal elimination phase, read-out: Vz): 0.116 L/kg
clearance ([1]; 10 mg/kg, single IV 10 mg/kg, initial elimination phase, read-out: CL): 11.1 mL/min/kg
half-life ([1]; 10 mg/kg, single IV 10 mg/kg, initial elimination phase, read-out: T½): 7.64 min
Vd ([1]; 10 mg/kg, single IV 10 mg/kg, initial elimination phase, read-out: Vz): 0.122 L/kg
clearance ([1]; 10 mg/kg, single IV 10 mg/kg, terminal elimination phase, read-out: CL): 11.1 mL/min/kg
half-life ([1]; 10 mg/kg, single IV 10 mg/kg, terminal elimination phase, read-out: T½): 10.2 min
Vd ([1]; 10 mg/kg, single IV 10 mg/kg, terminal elimination phase, read-out: Vz): 0.162 L/kg
clearance ([1]; single IV, both phases, range over 0.1-10 mg/kg, read-out: clearance): 8 to 11 mL/min/kg
half-life ([1]; single IV, initial phase, range over 0.1-10 mg/kg, read-out: half-life): 3 to 8 min
Vd ([1]; single IV, initial phase, range over 0.1-10 mg/kg, read-out: volume of distribution): 0.039 to 0.122 L/kg
half-life ([1]; single IV, terminal elimination phase, range over 0.1-10 mg/kg, read-out: half-life): 10 to 19 min
Vd ([1]; single IV, terminal phase, range over 0.1-10 mg/kg, read-out: volume of distribution): 0.116 to 0.261 L/kg
AUC(0-t) [1, 3]: 165 ng·h/mL
C0 [1, 3]: 1790 ng/mL
AUC(0-inf) ([1]; single IV 0.1 mg/kg, terminal elimination phase): 173 ng·h/mL
AUC(0-t) [1, 4]: 2070 ng·h/mL
C0 [1, 4]: 32500 ng/mL
AUC(0-inf) ([1]; single IV 1.0 mg/kg, terminal elimination phase): 2070 ng·h/mL
AUC(0-t) [1, 5]: 14800 ng·h/mL
C0 [1, 5]: 68900 ng/mL
AUC(0-inf) ([1]; single IV 10 mg/kg, terminal elimination phase): 15000 ng·h/mL
Substance: AMVSEFLKQAWFIENEEQEYVQTLKSSKGGPGSAVSPYPTFNPSSDV-NH2 [Peptide 1]
exposure (C(0) and AUCinf) versus dose ([2]; from 1 mg/kg to 10 mg/kg): increase proportional to dose level
C0 ([2]; 1 mg/kg, Group 2 (1 mg/kg), range over sexes and Days 1 and 14): 9960 to 11900 ng/mL
AUC(0-inf) ([2]; 1 mg/kg, Group 2 (1 mg/kg), range over sexes and Days 1 and 14, read-out: AUCinf): 918 to 1030 ng·h/mL
C0 ([2]; 3 mg/kg, Group 3 (3 mg/kg), range over sexes and Days 1 and 14): 23000 to 41900 ng/mL
AUC(0-inf) ([2]; 3 mg/kg, Group 3 (3 mg/kg), range over sexes and Days 1 and 14, read-out: AUCinf): 2280 to 3380 ng·h/mL
C0 ([2]; 10 mg/kg, Group 4 (10 mg/kg), range over sexes and Days 1 and 14): 92300 to 138000 ng/mL
AUC(0-inf) ([2]; 10 mg/kg, Group 4 (10 mg/kg), range over sexes and Days 1 and 14, read-out: AUCinf): 9130 to 10100 ng·h/mL
half-life ([2]; all groups, read-out: elimination half-life): 7 to 8 min
C0 [2, 6]: 11900 ng/mL
clearance [2, 6]: 18.1 mL/min/kg
AUC(0-inf) ([2]; iv, 1 mg/kg/day, IV 1.0 mg/kg/day, female, Day 1, read-out: AUC0-∞ (converted)): 918 ng·h/mL
half-life ([2]; iv, 1 mg/kg/day, IV 1.0 mg/kg/day, female, Day 1, read-out: T1/2): 7.33 min
Vd ([2]; iv, 1 mg/kg/day, IV 1.0 mg/kg/day, female, Day 1, read-out: Vz): 0.192 L/kg
C0 [2, 7]: 10900 ng/mL
clearance [2, 7]: 16.2 mL/min/kg
AUC(0-inf) ([2]; iv, 1 mg/kg/day, IV 1.0 mg/kg/day, female, Day 14, read-out: AUC0-∞ (converted)): 1030 ng·h/mL
half-life ([2]; iv, 1 mg/kg/day, IV 1.0 mg/kg/day, female, Day 14, read-out: T1/2): 7.11 min
Vd ([2]; iv, 1 mg/kg/day, IV 1.0 mg/kg/day, female, Day 14, read-out: Vz): 0.167 L/kg
